Laboratory results taken from patent publication US20230310368A1, “MDMA ENANTIOMERS” (Mind Medicine, Inc., priority 2021, published 2023).
Entries after “also recorded” stand apart in the source; their conditions may differ.

Tests used:
Fmr1 KO mice [1] = experiment: Three-Chamber Social Interaction Test (TCSIT); assay type: in vivo, mouse
Procedure: (§1) Methods. The study was conducted in 10-week-old male Fmr1 KO mice. Animals were dosed per os with vehicle, R(−)-MDMA (8, 17 and 30 mg/kg) or SR-MDMA (8 mg/kg) with a minimum 3-day washout between doses. […] Compounds were administered 30 minutes prior to each behavioral test. Basic statistical analysis was performed. If more than 2 groups were compared with each other, significance was calculated by One-way or Two-way analysis of variance (ANOVA) followed by the Bonferroni post hoc test. In case of non-normally distributed data, significance was calculated by Kruskal-Wallis test followed by Dunn's multiple comparisons test.
To measure sociability, animals were tested in the Three Chamber Social Interaction Test. It consisted of a habituation phase, an approach phase and a recognition phase (FIG. 5).
On the testing day, the test animal was placed in the center of the box and was allowed to explore it for ten minutes with two empty stranger mouse cylinders on each side of the box for habituation.
Social approach: After habituation, the mouse was removed from the box, the box was cleaned with 70% Isopropanol and dried with a hand fan. A sex-matched stranger mouse was placed into the mouse cylinder in the left chamber and the test animal was placed in the center of the box again for ten minutes.
Social recognition: After the social approach, mice were immediately tested for social recognition. The already known mouse stayed in the left chamber and a new mouse was placed under the cylinder in the right chamber. The test mouse was again placed in the middle chamber and, for 10 minutes, it was measured how much time it spent in each chamber and how much time it spent sniffing each mouse. Healthy mice will spend more time with the new mouse due to novelty. Socially disturbed mice might not recognize the already known mouse and spend therefore similar amounts of time with each mouse.
Both social approach and social recognition were recorded and analyzed by using Noldus Ethovision 8.5.
(§2) Methods. The study was conducted in 96 10-week-old male Fmr1 KO mice. Animals were dosed orally with vehicle, R(−)-3,4-MDMA (8, 17 and 30 mg/kg), S-(+)-3,4-MDMA (8 mg/kg) or (±)-3,4-MDMA (8 mg/kg) with a minimum 3-day washout between doses. In the Three-Chamber Social Interaction Test (TCSIT), a stranger animal was placed in one of two wire cylinders in the testing area. The time spent in each of three arenas: the neutral arena, the stranger arena or the empty arena, was assessed (FIG. 5). Animals were evaluated in the Open Field Test (OFT) measuring hyperactivity, locomotor activity, thigmotaxis and grooming duration (FIGS. 7A-7B). In the Ultrasonic Vocalization (USV) test, male mice were exposed to fresh urine from females in the estrous cycle. Vocal emissions were recorded for 5 minutes and analyzed. Compounds were administered 30 minutes before each behavioral test. Significance was calculated by One-way analysis of variance followed by the Bonferroni post hoc test. In non-normally distributed data, Kruskal-Wallis test followed by Dunn's multiple comparisons test was applied.

Fmr1 KO mice [2] = experiment: Ultrasonic Vocalization (USV) test; assay type: in vivo, mouse; settings: any dose, oral, 5 minutes recording, P<0.001
Procedure: as §1
Adult male mice emit Ultrasonic Vocalization (USV) under selected experimental conditions, upon encountering a sexually receptive female or female urine. These vocal emissions are considered an index of emotionality, social interest, and motivation.
To induce the estrous cycle in female mice, mice were subcutaneously treated with 50 μl of ß-estradiol 48 hours prior to testing (time sensitive). […]
On the test day, study animals were habituated in a separate soundproof room. Before recording, each mouse was separated from its home cage, placed in another cage that was covered with fresh bedding, and moved to the next soundproof room equipped with an UltraSoundGate Condenser Microphone (CM16; Avisoft Bioacoustics, Berlin, Germany), connected via an Avisoft UltraSoundGate 416 USB Audio device (Avisoft Bioacoustics) to a personal computer, where acoustic data were recorded with a sampling rate of 250,000 Hz in 16-bit format. […] Vocal emission was recorded for 5 minutes.
For acoustical analysis, recordings were transferred to SASLab Pro (Avisoft Bioacoustics) and a fast Fourier transform was conducted (512 FFT length, 100% frame, Hamming window, and 75% time window overlap). […] The total number of vocalizations and the latency to initiate the first call were extracted and evaluated for the whole 5 minutes of recording.
Methods. […] The time spent in each of three arenas: the neutral arena, the stranger arena or the empty arena, was assessed (FIG. 5). […]

[3] = background, limited pre-clinical evidence; cited from earlier work
dopamine = settings: background, receptor studies and limited pre-clinical evidence; cited from earlier work
Fmr1 KO mice [4] = experiment: Open Field Test (OFT) including grooming evaluation; assay type: in vivo, mouse
Procedure: as §1
Spontaneous activity and anxiety was assessed in the Open Field by evaluating the following parameters: hyperactivity [s], activity [s], distance [m], rearings [s], rearings [n] and grooming behavior. For that purpose, a Plexiglas Open Field (48×48 cm) in combination with a computerized video tracking system (Noldus Ethovision XT 14) was used (FIGS. 7A-7B).
The mice were brought to the room at least 45 minutes before the start of the testing. Each test session lasted for 5 minutes to check the mice's behavior in the new surroundings, as the first minutes of the Open Field test are the most suitable to display the exploration behavior of the animals. After the testing session, the number of fecal boluses was counted, as a measure of emotionality. The Open Field was cleaned with 70% Isopropanol after each mouse to get rid of odor traces. Testing was performed under standard room lighting conditions during the light phase of the circadian cycle.
as §2

[5] = oral, 30 minutes before test, R compared to S or racemate P<0.001

Row | Compound | Arena Frequency with the stranger (Fmr1 KO mice [1]; 8 mg/kg oral) | Interaction Duration with the stranger (Fmr1 KO mice [1]; 8 mg/kg oral) | Interaction Index with the stranger (Fmr1 KO mice [1]; 8 mg/kg oral) | interaction with the stranger and empty chamber vs. vehicle-treated animals (Fmr1 KO mice [1]; 8 mg/kg oral) | number of vocalizations (Fmr1 KO mice [2]) | hyperthermia [3] | efficacy as a releaser of dopamine (dopamine) | Arena Frequency with the stranger (Fmr1 KO mice [1]; 30 mg/kg oral, P<0.001) | interaction with the stranger and empty chamber vs. vehicle-treated animals (Fmr1 KO mice [1]; all three doses (8, 17 and 30 mg/kg) oral, P<0.01) | effect on social interaction compared with S-(+)-3,4-MDMA or (±)-3,4-MDMA (Fmr1 KO mice [1]; conclusion of the study) | social approach and interaction (Fmr1 KO mice [1]; male Fmr1 KO mice, oral 8, 17 and 30 mg/kg, 30 minutes before test) | number of grooming occasions (Fmr1 KO mice [4]; 30 mg/kg oral) | distance moved (Fmr1 KO mice [4]; [5]) | hyperactivity (Fmr1 KO mice [4]; [5]) | number of grooming occasions (Fmr1 KO mice [4]; oral, R 8, 17, 30 mg/kg, S and racemate 8 mg/kg)
1 | CNC(C)Cc1ccc2c(c1)OCO2 (racemic) [(±)-3,4-MDMA, S,R(±)-3,4-methylenedioxymethamphetamine] | no effect | no effect | no effect | efficacious only for interaction with the stranger | significantly reduced |  |  |  |  |  |  |  |  |  | 
2 | CN[C@H](C)Cc1ccc2c(c1)OCO2 [R(−)-3,4-MDMA, R(−)-3,4-methylenedioxymethamphetamine] |  |  |  |  | significantly reduced | does not produce hyperthermia | low efficacy | statistically significant | significant difference | more potent | dose-dependently increased | active | significantly lesser effect | significantly lesser effect; also recorded: significantly reduced hyperactivity effects | less efficacious than S-(+)-3,4-MDMA or (±)-3,4-MDMA
3 | CN[C@@H](C)Cc1ccc2c(c1)OCO2 [S-(+)-3,4-MDMA] | no effect | no effect | no effect | not associated with significant changes | significantly reduced |  |  |  |  |  |  |  |  |  | 
